Measured values from patent publication US11167015B2, “Arginine and its use as a T cell modulator” (INSTITUTE FOR RESEARCH IN BIOMEDICINE, priority 2016, dated 2021).

Legend:
activated CD4+ T cells [1] = assay: IL-2 withdrawal assay and assessment of cell viability, CD4+ T cells; format: cell-based, human; conditions: for survival of activated CD4+ T cells in the absence of exogenous cytokines: metabolites 3 mM, except for spermidine 0.1 mM, 5 days after IL-2 withdrawal
Protocol: Naïve CD4 T cells were activated with plate-bound CD3 and CD28 antibodies. 48 h after activation IL-2 was added to culture media (500 U ml^−1). After a further 3 days of culturing, cells were washed, counted and equal cell numbers were plated in medium devoid of IL-2. The withdrawal medium was no longer supplemented with e.g. L-arginine. Cell viability was assessed with annexin V.

arginase = arginase inhibition; cited from earlier work
activated CD4+ T cells [2] = assay: 3H-arginine uptake assay and calculation of proteome incorporation; format: cell-based, human; conditions: 3 mM added as competitive uptake inhibitor, 15 minutes pulse, 3 day-activated CD4+ T cells
Protocol: (§1) FIG. 10. […] (A) Kinetics of T cell proliferation. Human naïve CD4+ T cells were labeled with CellTraceViolet (CTV) and activated in Ctrl medium or in L-Arg medium or in medium supplemented with 3 mM D-arginine or 3 mM L-arginine together with 3 mM L-lysine. Cell divisions were monitored at 48 h and 72 h by flow cytometry. (B) CTV-labeled CD4+ T cells were activated in normal medium or L-Arg medium and the dilution of CTV was measured over time by flow cytometry. n=5 from two donors. (C) 3H-L-arginine uptake by 3 day-activated CD4+ T cells during a 15 minutes pulse. Where indicated, 3 mM L-arginine, D-arginine or L-lysine was added to the culture medium as a competitive uptake inhibitor. n=7 for control, n=9 for L-Arg, n=5 for D-Arg, and n=9 for L-Lys. Bars represent the s.e.m.

human naïve CD4+ T cells [3] = assay: T cell proliferation (CellTrace Violet dilution); format: cell-based
Protocol: as §1

human naïve CD4+ T cells [4] = assay: kinetic metabolome analysis of activated T cells; format: cell-based; conditions: added to the culture medium at the same concentration as L-arginine (3 mM)
Protocol: (B) Differential analysis of the glycolytic pathway between naïve CD4^+ T cells cultured in L-Arg medium or Ctrl medium, 96 h after activation. Log 2 fold changes of proteins and metabolites are color-coded. […] 3-P-Glycerate and 2-P-Glycerate could not be distinguished as they have the same mass. (C) 72 h-activated T cells were plated in fresh medium and glucose consumption was determined enzymatically after 24 h; n=9 from three donors. (D) Seahorse experiment performed with activated (96 h) T cells from one donor. Oligomycin was injected after 56 min, FCCP after 96 min, and antimycin (to inhibit the respiratory chain) after 136 min. Data are representative of 5 independent experiments with different donors.
(A) Human naïve CD4^+ T cells were activated in normal medium or in L-Arg medium. Nitric oxide formation was measured using DAF-FM diacetate at different time points.
Naïve CD4^+ T cells were either analyzed directly after isolation or at different time points after activation with CD3 and CD28 antibodies. Cells were washed twice in 96-well plates with 75 mM ammonium carbonate at pH 7.4 and snap frozen in liquid nitrogen. Metabolites were extracted three times with hot (>70° C.) 70% ethanol. Extracts were analyzed by flow injection—time of flight mass spectrometry on an Agilent 6550 QTOF instrument operated in the negative mode, as described previously (Fuhrer et al., 2011). Typically 5,000-12,000 ions with distinct mass-to-charge (m/z) ratio could be identified in each batch of samples. Ions were putatively annotated by matching their measured mass to that of the compounds listed by the KEGG database for Homo sapiens, allowing a tolerance of 0.001 Da. Only deprotonated ions (without adducts) were considered in the analysis. In case of multiple matching, such as in the case of structural isomers, all candidates were retained.

96 h-activated T cells = assay: 13C-L-arginine metabolic tracing (metabolic flux experiments); format: cell-based, human; conditions: addition of arginase inhibitor, 13C6-L-arginine pulse
Protocol: FIG. 2. L-arginine is rapidly metabolized upon activation (A) Intracellular abundance of L-arginine in non-activated (non-act) and activated naïve CD4^+ T cells (CD3+CD28 antibodies). Boxplot, n=30 from three donors, each in a different color; a.u. arbitrary units. (B) Kinetics of ^3H-L-arginine uptake during a 15 min pulse. Box plot, n=5 from three donors. (C) Uptake, proteome incorporation and intracellular abundance of the indicated amino acids. Barplot (left): 5×10^4 cells were activated for 4 days and consumption of amino acids from medium was analyzed. Essential amino acids are in grey; n=4 from four donors, error bars represent s.e.m. […] Heat map (right): Intracellular amino acid abundance relative to naive T cells over time as determined by MS; n=30 from three donors. […] Black dots are metabolites that were not detected by MS. Only enzymes that were detected by MS are shown. […] 96 h-activated T cells were pulsed with ^13C6-L-arginine and the metabolic fate was analyzed by LC-MS/MS at different time points. AFL, Apparent fractional labeling; n=4 from two donors. ^13C Citrulline was not detected.
Naïve CD4^+ T cells were activated and 4 days, later extensively washed and pulsed with L-arginine free RPMI medium containing 1 mM [U-^13C]-L-Arginine hydrochloride (Sigma). […] Metabolites were extracted and analyzed by HILIC LC-MS/MS. […]

[5] = tested on: C56BL/6 wild type (Wt) or Arg2−/− T cells; assay: In vitro T cell survival with wild type or Arg2-/- mouse T cells; format: cell-based; conditions: norNOHA 500 μM, 2 days after IL-2 withdrawal

## NCCCCNCCCN [spermidine]
Activated CD4+ T cells [1]
  survival of activated CD4+ T cells in the absence of exogenous cytokines: decreased T cell survival

## N[C@@H](CSCCB(O)O)C(=O)O [BEC, S-(2-boronoethyl)-L-cysteine]
arginase
  intracellular L-arginine levels: increase intracellular L-arginine levels

## [N]=O [nitric oxide]
Activated CD4+ T cells [1]; nitric oxide synthase inhibitors DiMeArg or L-NAME at 1 mM
  T cell survival (role of nitric oxide): had no effect

## CN(CC(=O)O)C(=N)N [creatine]
Activated CD4+ T cells [1]
  survival of activated CD4+ T cells in the absence of exogenous cytokines: had no effect

## N=C(N)NCCC[C@@H](N)C(=O)O [D-arginine]
Activated CD4+ T cells [2]
  L-arginine uptake: inhibit L-arginine uptake
Human naïve CD4+ T cells [3]; 3 mM in medium
  onset of proliferation: not affected
Activated CD4+ T cells [1]
  survival of activated CD4+ T cells in the absence of exogenous cytokines: decreased T cell survival significantly

## NCCCC[C@H](N)C(=O)O [L-lysine]
Activated CD4+ T cells [2]
  L-arginine uptake: inhibit L-arginine uptake
Human naïve CD4+ T cells [3]; 3 mM L-lysine added to L-arginine-supplemented cultures
  onset of proliferation: not affected
Activated CD4+ T cells [1]
  survival of activated CD4+ T cells in the absence of exogenous cytokines: decreased T cell survival significantly

## NC(=O)C1CCCc2c1[nH]c1ccc(Cl)cc21 (centres unmarked) [Ex-527]
Activated CD4+ T cells [1]; Ex-527 5 μM added at activation
  L-arginine-mediated increase in survival in the presence of the Sirtuin-1 inhibitor: comparable to controls

## N=C(N)NCCCCN [agmatine]
Activated CD4+ T cells [1]
  survival of activated CD4+ T cells in the absence of exogenous cytokines: decreased T cell survival

## NC(=O)NCCC[C@H](N)C(=O)O [L-citrulline, reference compound]
Human naïve CD4+ T cells [4]
  effects on metabolism: only had minor effects
Activated CD4+ T cells [1]
  survival of activated CD4+ T cells in the absence of exogenous cytokines: had no effect

## O=C(O)[C@@H]1CCCN1 [proline, L-proline]
Activated CD4+ T cells [1]
  survival of activated CD4+ T cells in the absence of exogenous cytokines: had no effect

## N=C(NO)NCC[C@H](N)C(=O)O [norNOHA, N^ω-Hydroxy-nor-L-arginine]
96 h-activated T cells
  conversion of L-arginine into agmatine: did not affect
  conversion of L-arginine into ornithine, putrescine, spermidine and proline: markedly reduced
[5]
  survival of Arg2−/− T cells after IL-2 withdrawal: did not affect survival
  survival of wild type T cells after IL-2 withdrawal: increasing the survival
arginase
  intracellular L-arginine levels: increase intracellular L-arginine levels

## Cl.N=C(N)NCCC[C@H](N)C(=O)O [L-arginine-HCl, L-arginine hydrochloride]
Activated CD4+ T cells [1]
  survival of activated CD4+ T cells in the absence of exogenous cytokines: enhanced T cell survival to a similar extent

## NCCCCN [putrescine]
Activated CD4+ T cells [1]
  survival of activated CD4+ T cells in the absence of exogenous cytokines: decreased T cell survival

## NC(N)=O [urea]
Activated CD4+ T cells [1]
  survival of activated CD4+ T cells in the absence of exogenous cytokines: had no effect
